# Laboratory results reported in US8993574B2, “Pyrrole antifungal agents” (F2G Ltd, priority 2008, dated 2015).
# Legend:
# Assay type in all cases: cell-based
# [1] = system: Aspergillus fumigatus AF210; experiment: MIC, RPMI medium; conditions: for MIC: Aspergillus fumigatus, AF210, MIC banded into grades, read-out: MIC grade, A. fumigatus 210
# How it was run: (§1)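 MIC taken as lowest drug level inhibiting growth by >80% relative to drug-free wells, read as OD at 485 nm after 24-48 h at 35° C. Organisms at 1−2×10^4 cfu/mL in RPMI (2% glucose, 0.135 M MOPS, pH 7.0) exposed to doubling dilutions spanning 50-0.05 mg/L.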
# Aspergillus terreus AT49 [2] = experiment: MIC, RPMI medium; conditions: for MIC: Aspergillus terreus, AT49, MIC banded into grades, read-out: MIC grade, A. terreus 49
# How it was run: as §1
# Aspergillus terreus AT4 [3] = experiment: MIC, RPMI medium; conditions: for MIC: Aspergillus terreus, AT4, MIC banded into grades, read-out: MIC grade, A. terreus
# How it was run: as §1
# [4] = system: Aspergillus fumigatus AF293; experiment: MIC, RPMI medium; conditions: for MIC: Aspergillus fumigatus, AF293, MIC banded into grades, read-out: MIC grade, A. fumigatus
# How it was run: as §1
# Aspergillus niger [5] = experiment: MIC, RPMI medium; conditions: MIC banded into grades; for MIC: Aspergillus niger, read-out: MIC grade, A. niger
# How it was run: as §1
# Aspergillus flavus [6] = experiment: MIC, RPMI medium; conditions: MIC banded into grades; for MIC: Aspergillus flavus, read-out: MIC grade, A. flavus
# How it was run: as §1
# [7] = system: Aspergillus fumigatus AF210; experiment: MIC, YAG medium; conditions: 24 h at 35° C, MIC banded into grades; for MIC: Aspergillus fumigatus, read-out: MIC grade, A. fumigatus 210
# How it was run: (§2)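 Spores harvested from 5-day Sabouraud agar cultures were inoculated at 1−2×10^4 cfu/mL into YAG medium (1% glucose, 1% ammonium chloride, 0.5% yeast extract) over doubling drug dilutions spanning 50-0.05 mg/L, or 0.5-0.0005 mg/L on repeat. After 24 h at 35° C, OD485 was read. MIC is the lowest concentration inhibiting growth >70% versus drug-free control, in mg/L.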
# Aspergillus terreus AT49 [8] = experiment: MIC, YAG medium; conditions: 24 h at 35° C, MIC banded into grades; for MIC: Aspergillus terreus, read-out: MIC grade, A. terreus 49
# How it was run: as §2
# Aspergillus terreus AT4 [9] = experiment: MIC, YAG medium; conditions: 24 h at 35° C, MIC banded into grades; for MIC: Aspergillus terreus, read-out: MIC grade, A. terreus
# How it was run: as §2
# [10] = system: Aspergillus fumigatus AF293; experiment: MIC, YAG medium; conditions: 24 h at 35° C, MIC banded into grades; for MIC: Aspergillus fumigatus, read-out: MIC grade, A. fumigatus
# How it was run: as §2
# Aspergillus niger [11] = experiment: MIC, YAG medium; conditions: 24 h at 35° C, MIC banded into grades; for MIC: Aspergillus niger, read-out: MIC grade, A. niger
# How it was run: as §2
# Aspergillus flavus [12] = experiment: MIC, YAG medium; conditions: 24 h at 35° C, MIC banded into grades; for MIC: Aspergillus flavus, 24 h, read-out: MIC grade, A. flavus
# How it was run: as §2
Compound,MIC [1] [µg/mL],MIC (Aspergillus terreus AT49 [2]) [µg/mL],MIC (Aspergillus terreus AT4 [3]) [µg/mL],MIC [4] [µg/mL],MIC (Aspergillus niger [5]) [µg/mL],MIC (Aspergillus flavus [6]) [µg/mL],MIC [7] [µg/mL],MIC (Aspergillus terreus AT49 [8]) [µg/mL],MIC (Aspergillus terreus AT4 [9]) [µg/mL],MIC [10] [µg/mL],MIC (Aspergillus niger [11]) [µg/mL],MIC (Aspergillus flavus [12]) [µg/mL],also measured
"Cc1cc(-c2ccccc2)c(C(=O)C(=O)Nc2ccc(-c3ncc(CN4CCCCC4)o3)cc2)n1C [Example 153, 2-(1,5-Dimethyl-3-phenyl-1H-pyrrol-2-yl)-2-oxo-N-[4-(5-piperdin-1-ylmethyl-oxazol-2-yl)-phenyl]-acetamide]",–,–,–,–,–,–,–,–,–,–,–,–,"MIC grade, A. fumigatus 210 ([1]; MIC banded into grades): 2 (A grade of 2 represents an MIC of from 1 to 10 mg/L); MIC grade, A. terreus 49 (Aspergillus terreus AT49 [2]; MIC banded into grades): 3 (A grade of 3 represents an MIC of less than 1 mg/L); MIC grade, A. terreus (Aspergillus terreus AT4 [3]; MIC banded into grades): 3 (A grade of 3 represents an MIC of less than 1 mg/L); MIC grade, A. fumigatus ([4]; MIC banded into grades): 2 (A grade of 2 represents an MIC of from 1 to 10 mg/L); MIC grade, A. niger (Aspergillus niger [5]): 3 (A grade of 3 represents an MIC of less than 1 mg/L); MIC grade, A. flavus (Aspergillus flavus [6]): 2 (A grade of 2 represents an MIC of from 1 to 10 mg/L); MIC grade, A. fumigatus 210 [7]: 2 (A grade of 2 represents an MIC of from 1 to 10 mg/L); MIC grade, A. terreus 49 (Aspergillus terreus AT49 [8]): 3 (A grade of 3 represents an MIC of less than 1 mg/L); MIC grade, A. terreus (Aspergillus terreus AT4 [9]): 2 (A grade of 2 represents an MIC of from 1 to 10 mg/L); MIC grade, A. fumigatus [10]: 3 (A grade of 3 represents an MIC of less than 1 mg/L); MIC grade, A. niger (Aspergillus niger [11]): 3 (A grade of 3 represents an MIC of less than 1 mg/L); MIC grade, A. flavus (Aspergillus flavus [12]): 3 (A grade of 3 represents an MIC of less than 1 mg/L)"
"CSCCn1c(C)cc(-c2ccccc2)c1C(=O)C(=O)Nc1ccc(N2CCN(c3cc(C)cc(C)n3)CC2)cc1 [Example 133, N-{4-[4-(4,6-Dimethyl-pyridin-2-yl)-piperazin-1-yl]-phenyl}-2-[5-methyl-1-(2-methylsulfanyl-ethyl)-3-phenyl-1H-pyrrol-2-yl]-2-oxo-acetamide]",< 1,1 to 10,1 to 10,< 1,< 1,> 10,< 1,< 1,< 1,< 1,< 1,1 to 10,–
"COCC(C)N1CCN(c2ccc(NC(=O)C(=O)c3c(-c4ccccc4)cc(C)n3C)cc2)CC1 (stereo not drawn) [Example 151, 2-(1,5-Dimethyl-3-phenyl-1H-pyrrol-2-yl)-N-{4-[4-(2-methoxy-1-methyl-ethyl)-piperazin-1-yl]-phenyl}-2-oxo-acetamide]",< 1,< 1,< 1,< 1,< 1,< 1,< 1,< 1,< 1,< 1,< 1,< 1,–
"CCc1cc(-c2ccccc2)c(C(=O)C(=O)Nc2ccc(N3CCN(c4cc(C)cc(C)n4)CC3)cc2)n1CCOC [Example 54, N-{4-[4-(4,6-Dimethyl-pyridin-2-yl)-piperazin-1-yl]-phenyl}-2-[5-ethyl-1-(2-methoxy-ethyl)-3-phenyl-1H-pyrrol-2-yl]-2-oxo-acetamide]",1 to 10,> 10,> 10,< 1,1 to 10,> 10,< 1,< 1,1 to 10,< 1,1 to 10,1 to 10,–
"Cc1cc(C)nc(N2CCN(c3ccc(NC(=O)C(=O)c4ccc(C)n4-c4ccccc4)cc3)CC2)c1 [Example 3, N-{4-[4-(4,6-Dimethyl-pyridin-2-yl)-piperazin-1-yl]-phenyl}-2-(5-methyl-1-phenyl-1H-pyrrol-2-yl)-2-oxo-acetamide]",> 10,1 to 10,1 to 10,> 10,> 10,> 10,1 to 10,< 1,< 1,> 10,> 10,1 to 10,–
"COCc1cc(-c2ccccc2)c(C(=O)C(=O)Nc2ccc(N3CCN(c4cc(C)cc(C)n4)CC3)cc2)n1COC [Example 131, 2-(1,5-Bis-methoxymethyl-3-phenyl-1H-pyrrol-2-yl)-N-{4-[4-(4,6-dimethyl-pyridin-2-yl)-piperazine-1-yl]-phenyl}-2-oxo-acetamide]",> 10,1 to 10,1 to 10,> 10,1 to 10,> 10,1 to 10,1 to 10,1 to 10,1 to 10,1 to 10,1 to 10,–
"COCC=CCn1c(C)cc(-c2ccccc2)c1C(=O)C(=O)Nc1ccc(N2CCN(c3cc(C)cc(C)n3)CC2)cc1 [Example 141, N-{4-[4-(4,6-Dimethyl-pyridin-2-yl)-piperazin-1-yl]-phenyl}-2-[1-(4-methoxy-but-2-enyl)-5-methyl-3-phenyl-1H-pyrrol-2-yl]-2-oxo-acetamide]",> 10,> 10,> 10,> 10,> 10,> 10,< 1,1 to 10,1 to 10,< 1,1 to 10,1 to 10,–
"CCc1cc(-c2ccccc2)c(C(=O)C(=O)Nc2ccc(N3CCN(c4cc(C)cc(C)n4)CC3)cc2)n1COC [Example 125, N-{4-[4-(4,6-Dimethyl-pyridin-2-yl)-piperazin-1-yl]-phenyl}-2-(5-ethyl-1-methoxymethyl-3-phenyl-1H-pyrrol-2-yl)-2-oxo-acetamide]",1 to 10,1 to 10,1 to 10,1 to 10,1 to 10,1 to 10,< 1,< 1,< 1,< 1,< 1,< 1,–
"Cc1cc(-c2ccccc2)c(C(=O)C(=O)Nc2ccc(-c3ncco3)cc2F)n1C [Example 100, 2-(1,5-Dimethyl-3-phenyl-1H-pyrrol-2-yl)-N-[2-fluoro-4-oxazol-2-yl-phenyl)-2-oxo-acetamide]",1 to 10,< 1,< 1,< 1,< 1,< 1,1 to 10,< 1,< 1,< 1,< 1,< 1,–
"Cc1cc(C)nc(N2CCN(c3ccc(NC(=O)C(=O)c4ccc(C)[nH]4)cc3)CC2)c1 [Example 4, N-{4-[4-(4,6-Dimethyl-pyridin-2-yl)-piperazin-1-yl]-phenyl}-2-(5-methyl-1H-pyrrol-2-yl)-2-oxo-acetamide]",> 10,> 10,> 10,> 10,> 10,> 10,1 to 10,1 to 10,> 10,1 to 10,1 to 10,1 to 10,–
